In general, IC50 refers to the concentration that gives 50% inhibition.

In assay [1] the test system is Human Peripheral Blood Mononuclear Cells (PBMC). As to the kind of experiment: PBMC cell assay (IL-1β assay with human PBMC, LPS stimulated, ELISA). Format: cell-based. Particulars: LPS 5 ng/ml, 16-18 hr. An excerpt:
IL-L1β Assay with a Mixed Population of Human Peripheral Blood Mononuclear Cells (PBMC) or Enriched Adherent Mononuclear Cells
Processing of pre-IL-1β by ICE can be measured in cell culture using a variety of cell sources. Human PBMC obtained from healthy donors provides a mixed population of lymphocyte subtypes and mononuclear cells that produce a spectrum of interleukins and cytokines in response to many classes of physiological stimulators. Adherent mononuclear cells from PBMC provides an enriched source of normal monocytes for selective studies of cytokine production by activated cells.
An initial dilution series of test compound in DMSO or ethanol is prepared, with a subsequent dilution into RPMI-10% FBS media (containing 2 mM L-glutamine, 10 mM HEPES, 50 U and 50 ug/ml pen/strep) respectively to yield drugs at 4× the final test concentration containing 0.4% DMSO or 0.4% ethanol. The final concentration of DMSO is 0.1% for all drug dilutions. A concentration titration which brackets the apparent Ki for a test compound determined in an ICE inhibition assay is generally used for the primary compound screen.
Generally 5-6 compound dilutions are tested and the cellular component of the assay is performed in duplicate, with duplicate ELISA determinations on each cell culture supernatant.
Buffy coat cells isolated from one pint human blood (yielding 40-45 ml final volume plasma plus cells) are diluted with media to 80 ml and LeukoPREP separation tubes (Becton Dickinson) are each overlaid with 10 ml of cell suspension. After 15 min centrifugation at 1500-1800 xg, the plasma/media layer is aspirated and then the mononuclear cell layer is collected with a Pasteur pipette and transferred to a 15 ml conical centrifuge tube (Corning). […] The PBMC pellet is resuspended in a small volume of media, the cells are counted and adjusted to 6×10^6 cells/ml. […]
The skilled practitioner realizes that values obtained in cell assays, such as those described herein, can depend on multiple factors. The values may not necessarily represent fine quantitative results.
(An ELISA detects its analyte on a solid surface through an enzyme-linked reagent.)

Another assay concerns Human whole blood. As to the kind of experiment: Whole blood assay for IL-1β production. Format: cell-based. The note with it: 16-18 hr. Here is the method:
Whole Blood Assay for IL-1β Production
The whole blood assay is a simple method for measuring the production of IL-1β (or other cytokines) and the activity of potential inhibitors. The complexity of this assay system, with its full complement of lymphoid and inflammatory cell types, spectrum of plasma proteins and red blood cells is an ideal in vitro representation of human in vivo physiologic conditions.
Set incubator or water bath at 30° C. Aliquot 0.25 ml of blood into 1.5 ml eppendorf tubes, making sure to invert the whole blood sample tubes after every two aliquots. Differences in replicates may result if the cells sediment and are not uniformly suspended. Use of a positive displacement pipette will also minimize differences between replicate aliquots.
Prepare drug dilutions in sterile pyrogen-free saline by serial dilution. A dilution series which brackets the apparent Ki for a test compound determined in an ICE inhibition assay is generally used for the primary compound screen. For extremely hydrophobic compounds, prepare compound dilutions in fresh plasma obtained from the same blood donor or in PBS-containing 5% DMSO to enhance solubility.
Add 25 μl test compound dilution or vehicle control and gently mix the sample. Then add 5.0 μl LPS solution (250 ng/ml stocked prepared fresh: 5.0 ng/ml final concentration LPS), and mix again. Incubate the tubes at […] in a water bath for 16-18 hr with occasional mixing. Alternatively, the tubes can be placed in a rotator set at 4 rpm for the same incubation period. This assay should be set up in duplicate or triplicate with the following controls: negative control—no LPS; positive control—no test inhibitor; vehicle control—the highest concentration of DMSO or compound solvent used in the experiment. Additional saline is added to all control tubes to normalize volumes for both control and experimental whole blood test samples.
After the incubation period, whole blood samples are centrifuged for 10 minutes at ˜2000 rpm in the microfuge, plasma is transferred to a fresh microfuge tube and centrifuged at 1000×g to pellet residual platelets if necessary. Plasma samples may be stored frozen at −70° C. prior to assay for cytokine levels by ELISA.
R & D Systems (614 McKinley Place N.E. Minneapolis, Minn. 55413) Quantikine kits may be used for measurement of IL-1β and TNF-α. The assays are performed according to the manufacturer's directions. IL-1β levels of ˜1-5 ng/ml in positive controls among a range of individuals may be observed. A 1:200 dilution of plasma for all samples is usually sufficient for experiments for ELISA results to fall on the linear range of the ELISA standard curves. It may be necessary to optimize standard dilutions if you observe differences in the whole blood assay. Nerad, J. L. et al., J. Leukocyte Biol., 52, pp. 687-692 (1992).

Setting [2] is: Table 4, mature IL-1β in supernatant.

Turning to `O=C[C@H](CC(=O)O)NC(=O)CN1C(=O)C(NC(=O)OCc2ccccc2)N=C(c2ccccc2)c2ccccc21` (stereo partly drawn) [Example 1, (3S)-3-[3(R,S)-1,3-Dihydro-2-oxo-5-phenyl((benzyloxycarbonyl)amino)-2H-1,4-benzodiazepin-1-acetylamino]-4-oxobutyric acid], the IC50 in assay [1] (Table 2, mature IL-1β in supernatant) stood at 20 µM.

Turning to `Nc1c(Cl)cc(C(=O)NC2N=C(c3ccccc3)c3ccccc3N(CC(=O)N[C@H](C=O)CC(=O)O)C2=O)cc1Cl` (some centres unmarked) [Example 7], the IC50 with Human whole blood (Table 2, LPS 5.0 ng/ml) is above 20 µM.

In the assay on Human whole blood (Table 4, LPS 5.0 ng/ml), `O=C[C@H](CC(=O)O)NC(=O)CN1C(=O)C(NC(=O)c2nccc3ccccc23)N=C(c2ccccc2)c2ccccc21` (some centres unmarked) [Example 11] displayed an IC50 of 9 µM.

For `Nc1ccc(C(=O)NC2N=C(c3ccccc3)c3ccccc3N(CC(=O)N[C@H](C=O)CC(=O)O)C2=O)cc1Cl` (some centres unmarked) [Example 18], the IC50 in the assay on Human whole blood (Table 2, LPS 5.0 ng/ml) was above 20 µM.

The compound `Cc1cc(C(=O)NC2N=C(c3ccccc3)c3ccccc3N(CC(=O)N[C@H](C=O)CC(=O)O)C2=O)cc(C)c1O` (some centres unmarked) [Example 19] came in with an IC50 in the assay with Human whole blood (Table 2, LPS 5.0 ng/ml) of 10 µM.

Take `O=C[C@H](CC(=O)O)NC(=O)CN1C(=O)C(NC(=O)c2cc(Cl)c(O)c(Cl)c2)N=C(c2ccccc2)c2ccccc21` (some centres unmarked) [Example 21]: the IC50 with Human whole blood (Table 2, LPS 5.0 ng/ml) was determined as 10 µM.

In turn, `COc1ccc(Cl)cc1S(=O)(=O)NC1N=C(c2ccccc2)c2ccccc2N(CC(=O)N[C@H](C=O)CC(=O)O)C1=O` (some centres unmarked) [Example 39] registered an IC50 in the assay with Human whole blood (Table 4, LPS 5.0 ng/ml) above 20 µM.

For `COc1cccc(OC)c1C(=O)C(=O)NC1N=C(c2ccccc2)c2ccccc2N(CC(=O)N[C@H](C=O)CC(=O)O)C1=O` (some centres unmarked) [Example 49], the IC50 in assay [1] (setting [2]) is above 8 µM.

For `O=C[C@H](CC(=O)O)NC(=O)CN1C(=O)C(NC(=O)c2ccc(O)c(Cl)c2)N=C(c2ccccc2)c2ccccc21` (some centres unmarked) [Example 50], the IC50 in assay [1] (setting [2]) was above 8 µM.

Compound `Cc1cc(C(=O)NC2N=C(c3ccccc3)c3cc(NC=O)ccc3N(CC(=O)N[C@H](C=O)CC(=O)O)C2=O)cc(C)c1O` (some centres unmarked) [Example 58] came in with an IC50 in the assay on Human whole blood (Table 4, LPS 5.0 ng/ml) above 20 µM.

Regarding `Cc1cc(C(=O)NC2N=C(c3ccccc3)c3cc(N)ccc3N(CC(=O)N[C@H](C=O)CC(=O)O)C2=O)cc(C)c1O` (some centres unmarked) [Example 59], in the assay with Human whole blood (Table 4, LPS 5.0 ng/ml), it took 9.2 µM to reach half-maximal inhibition (IC50).

For the origin of these results see patent US6573259B2, “Inhibitors of interleukin-1β converting enzyme” (Vertex Pharmaceuticals Incorporated, priority 1996, dated 2003).
